≈ marks a conversion by molar mass, not a printed value.

Data set [1] has as its target T1, Interstitial collagenase (Homo sapiens, UniProt P03956).
T1 sequence (P03956 whole entry): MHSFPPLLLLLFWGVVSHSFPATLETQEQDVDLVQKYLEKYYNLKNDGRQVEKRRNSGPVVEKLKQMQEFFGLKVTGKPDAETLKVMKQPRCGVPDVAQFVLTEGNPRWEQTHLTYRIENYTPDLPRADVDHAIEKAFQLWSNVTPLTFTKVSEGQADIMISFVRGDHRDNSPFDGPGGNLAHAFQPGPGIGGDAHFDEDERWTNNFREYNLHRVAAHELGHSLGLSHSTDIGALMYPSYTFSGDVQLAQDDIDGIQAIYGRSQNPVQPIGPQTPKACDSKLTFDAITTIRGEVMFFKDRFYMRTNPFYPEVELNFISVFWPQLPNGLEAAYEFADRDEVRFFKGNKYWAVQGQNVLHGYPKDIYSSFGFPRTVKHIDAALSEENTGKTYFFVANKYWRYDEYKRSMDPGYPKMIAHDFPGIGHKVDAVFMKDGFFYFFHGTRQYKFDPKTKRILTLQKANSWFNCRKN
Nature of the data set: Inhibition of human recombinant MMP1.

The target in data set [2] is Macrophage metalloelastase (Homo sapiens, UniProt P39900). Put plainly: Inhibition of human recombinant MMP12.
The target in data set [3] is Collagenase 3 (Homo sapiens, UniProt P45452). Nature of the data set: Inhibition of human recombinant MMP13.
Data set [4] concerns the target T2, Matrilysin (Homo sapiens, UniProt P09237).
T2 sequence (P09237 whole entry): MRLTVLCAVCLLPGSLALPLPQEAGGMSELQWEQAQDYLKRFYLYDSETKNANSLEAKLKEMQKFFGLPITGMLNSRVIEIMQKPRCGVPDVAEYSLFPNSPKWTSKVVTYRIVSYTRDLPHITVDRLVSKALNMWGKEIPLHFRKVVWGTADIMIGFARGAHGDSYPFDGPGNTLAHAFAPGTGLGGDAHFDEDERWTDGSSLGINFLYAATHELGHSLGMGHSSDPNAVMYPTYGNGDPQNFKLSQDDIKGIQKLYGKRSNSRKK
Nature of the data set: Inhibition of human recombinant MMP7.

The target in data set [5] is Stromelysin-1 (Homo sapiens, UniProt P08254). Put plainly: Inhibition of human recombinant MMP3.
Data set [6] addresses Matrix metalloproteinase-9 (Homo sapiens, UniProt P14780). Put plainly: Inhibition of human recombinant MMP9.
Data set [7] can be described thus: Inhibition of guinea pig recombinant MMP12. The arrangement: species or system Cavia porcellus.
Data set [8] has as its target Matrix metalloproteinase-14 (Homo sapiens, UniProt P50281). Put plainly: Inhibition of human recombinant MMP14.
For data set [9], the target named is Disintegrin and metalloproteinase domain-containing protein 17 (Homo sapiens, UniProt P78536). Nature of the data set: Inhibition of human recombinant TACE.
In data set [10] the target is Angiotensin-converting enzyme (Homo sapiens, UniProt P12821). Nature of the data set: Inhibition of human recombinant ACE.
The target of data set [11] is 72 kDa type IV collagenase (Homo sapiens, UniProt P08253). Put plainly: Inhibition of human recombinant MMP2.
Data set [12] can be described thus: Lipophilicity, log D at pH 7.4. The following applies: buffer. The data set is classed as physicochemical.
The nature of data set [13]: Lipophilicity, log D at pH 6.2. The class given is physicochemical. The following applies: buffer.
Data set [14] in a line: Solubility at pH 7.4. The data set is classed as physicochemical. Conditions: buffer.
The nature of data set [15]: Solubility at pH 6.2. The class given is physicochemical. Conditions: buffer.

Disintegrin and metalloproteinase domain-containing protein 17, sequence (P78536 whole entry, the tested form may be a part): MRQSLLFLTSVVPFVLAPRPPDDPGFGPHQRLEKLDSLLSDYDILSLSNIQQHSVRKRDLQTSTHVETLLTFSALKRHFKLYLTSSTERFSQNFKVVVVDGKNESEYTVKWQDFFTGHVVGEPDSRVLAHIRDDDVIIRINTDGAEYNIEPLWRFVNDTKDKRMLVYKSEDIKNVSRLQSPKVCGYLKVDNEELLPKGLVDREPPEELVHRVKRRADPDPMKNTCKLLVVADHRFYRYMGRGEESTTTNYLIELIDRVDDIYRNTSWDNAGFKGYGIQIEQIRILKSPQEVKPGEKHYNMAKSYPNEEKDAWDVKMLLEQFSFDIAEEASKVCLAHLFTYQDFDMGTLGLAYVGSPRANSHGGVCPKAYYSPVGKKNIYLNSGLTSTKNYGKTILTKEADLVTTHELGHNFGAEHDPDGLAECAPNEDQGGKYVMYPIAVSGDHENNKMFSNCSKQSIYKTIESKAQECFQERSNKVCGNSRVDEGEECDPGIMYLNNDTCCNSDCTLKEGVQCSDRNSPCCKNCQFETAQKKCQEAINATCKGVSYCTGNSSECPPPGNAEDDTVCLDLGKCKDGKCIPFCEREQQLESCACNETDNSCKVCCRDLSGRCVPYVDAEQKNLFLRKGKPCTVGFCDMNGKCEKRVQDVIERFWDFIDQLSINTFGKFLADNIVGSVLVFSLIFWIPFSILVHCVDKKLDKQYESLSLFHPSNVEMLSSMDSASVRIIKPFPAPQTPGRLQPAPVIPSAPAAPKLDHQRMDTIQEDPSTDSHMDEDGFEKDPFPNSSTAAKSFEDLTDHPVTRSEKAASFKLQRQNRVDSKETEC
Angiotensin-converting enzyme, sequence (P12821 whole entry): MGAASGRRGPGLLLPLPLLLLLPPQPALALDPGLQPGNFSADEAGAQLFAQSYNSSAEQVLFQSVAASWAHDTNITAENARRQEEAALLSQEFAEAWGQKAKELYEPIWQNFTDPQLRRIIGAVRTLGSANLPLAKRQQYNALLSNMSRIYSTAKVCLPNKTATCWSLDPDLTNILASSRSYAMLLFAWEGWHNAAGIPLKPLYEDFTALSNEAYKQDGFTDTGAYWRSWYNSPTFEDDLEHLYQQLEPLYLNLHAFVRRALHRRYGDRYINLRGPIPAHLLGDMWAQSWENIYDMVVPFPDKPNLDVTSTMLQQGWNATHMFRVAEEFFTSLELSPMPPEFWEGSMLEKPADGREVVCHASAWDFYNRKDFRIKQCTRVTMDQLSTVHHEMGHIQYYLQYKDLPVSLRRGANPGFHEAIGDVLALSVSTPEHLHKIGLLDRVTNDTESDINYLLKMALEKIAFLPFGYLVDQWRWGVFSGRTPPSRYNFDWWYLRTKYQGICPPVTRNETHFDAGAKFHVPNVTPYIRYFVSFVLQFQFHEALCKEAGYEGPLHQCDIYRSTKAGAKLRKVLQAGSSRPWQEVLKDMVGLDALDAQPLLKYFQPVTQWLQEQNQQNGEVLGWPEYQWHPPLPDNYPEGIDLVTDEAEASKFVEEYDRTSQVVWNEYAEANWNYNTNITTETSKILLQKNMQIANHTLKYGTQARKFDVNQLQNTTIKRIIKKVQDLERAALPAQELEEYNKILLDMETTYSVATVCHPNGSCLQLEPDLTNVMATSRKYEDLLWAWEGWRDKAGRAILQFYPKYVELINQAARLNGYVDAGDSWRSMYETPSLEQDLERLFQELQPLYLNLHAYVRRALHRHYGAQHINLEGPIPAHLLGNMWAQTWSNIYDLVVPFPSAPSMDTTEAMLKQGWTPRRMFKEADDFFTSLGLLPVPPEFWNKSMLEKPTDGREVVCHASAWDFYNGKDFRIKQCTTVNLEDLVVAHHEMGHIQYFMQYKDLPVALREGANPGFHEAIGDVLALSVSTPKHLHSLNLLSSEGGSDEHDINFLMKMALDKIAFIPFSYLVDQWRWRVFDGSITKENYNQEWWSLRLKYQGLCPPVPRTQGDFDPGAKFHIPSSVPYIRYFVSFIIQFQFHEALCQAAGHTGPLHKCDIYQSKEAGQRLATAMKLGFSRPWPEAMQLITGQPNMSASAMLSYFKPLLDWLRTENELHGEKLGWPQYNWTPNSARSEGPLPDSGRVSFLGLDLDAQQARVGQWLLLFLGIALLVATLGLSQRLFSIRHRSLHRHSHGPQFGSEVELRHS
Matrix metalloproteinase-9, sequence (P14780 whole entry): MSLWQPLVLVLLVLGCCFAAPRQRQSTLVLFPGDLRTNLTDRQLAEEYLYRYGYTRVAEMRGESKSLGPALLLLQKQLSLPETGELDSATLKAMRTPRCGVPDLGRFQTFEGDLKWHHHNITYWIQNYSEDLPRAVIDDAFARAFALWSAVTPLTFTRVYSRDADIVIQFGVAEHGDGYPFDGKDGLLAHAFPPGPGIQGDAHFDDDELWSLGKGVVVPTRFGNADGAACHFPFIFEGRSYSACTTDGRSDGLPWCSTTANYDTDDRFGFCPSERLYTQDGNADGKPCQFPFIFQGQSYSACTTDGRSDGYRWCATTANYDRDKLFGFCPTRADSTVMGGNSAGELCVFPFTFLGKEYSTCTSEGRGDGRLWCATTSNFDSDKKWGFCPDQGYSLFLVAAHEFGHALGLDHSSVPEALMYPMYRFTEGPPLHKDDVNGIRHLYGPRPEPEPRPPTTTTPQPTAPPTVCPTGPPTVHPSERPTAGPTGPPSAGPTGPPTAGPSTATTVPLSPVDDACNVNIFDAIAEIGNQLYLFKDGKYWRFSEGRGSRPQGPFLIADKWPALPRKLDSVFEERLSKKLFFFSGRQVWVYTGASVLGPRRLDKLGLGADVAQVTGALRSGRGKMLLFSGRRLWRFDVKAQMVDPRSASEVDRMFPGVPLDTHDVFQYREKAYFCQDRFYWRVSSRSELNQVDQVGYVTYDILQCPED
Stromelysin-1, sequence (P08254 whole entry): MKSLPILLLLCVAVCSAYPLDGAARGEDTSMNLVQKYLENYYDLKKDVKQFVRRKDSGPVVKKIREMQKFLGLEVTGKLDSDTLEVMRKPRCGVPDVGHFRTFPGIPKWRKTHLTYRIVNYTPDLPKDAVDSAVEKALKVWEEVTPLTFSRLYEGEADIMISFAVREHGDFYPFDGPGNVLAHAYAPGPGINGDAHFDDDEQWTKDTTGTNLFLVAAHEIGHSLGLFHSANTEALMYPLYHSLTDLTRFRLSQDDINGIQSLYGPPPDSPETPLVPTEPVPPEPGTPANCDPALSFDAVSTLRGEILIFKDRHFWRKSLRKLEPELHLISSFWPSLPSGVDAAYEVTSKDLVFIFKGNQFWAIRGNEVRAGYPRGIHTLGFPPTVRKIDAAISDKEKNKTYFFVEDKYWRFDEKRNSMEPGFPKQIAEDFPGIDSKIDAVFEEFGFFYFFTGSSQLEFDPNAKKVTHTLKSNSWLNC
Macrophage metalloelastase, sequence (P39900 whole entry): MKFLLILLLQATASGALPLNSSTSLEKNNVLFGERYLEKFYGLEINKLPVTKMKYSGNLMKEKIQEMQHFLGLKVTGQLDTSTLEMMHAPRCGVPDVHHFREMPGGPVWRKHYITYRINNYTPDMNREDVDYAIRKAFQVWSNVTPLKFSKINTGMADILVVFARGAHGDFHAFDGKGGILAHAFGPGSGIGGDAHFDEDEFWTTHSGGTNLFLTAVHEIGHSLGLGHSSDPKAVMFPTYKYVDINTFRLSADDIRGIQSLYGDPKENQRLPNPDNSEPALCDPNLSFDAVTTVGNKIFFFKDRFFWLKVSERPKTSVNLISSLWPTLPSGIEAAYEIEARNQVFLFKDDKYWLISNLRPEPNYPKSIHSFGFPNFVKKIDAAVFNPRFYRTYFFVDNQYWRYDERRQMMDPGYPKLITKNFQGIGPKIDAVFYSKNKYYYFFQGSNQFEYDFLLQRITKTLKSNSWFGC
72 kDa type IV collagenase, sequence (P08253 whole entry): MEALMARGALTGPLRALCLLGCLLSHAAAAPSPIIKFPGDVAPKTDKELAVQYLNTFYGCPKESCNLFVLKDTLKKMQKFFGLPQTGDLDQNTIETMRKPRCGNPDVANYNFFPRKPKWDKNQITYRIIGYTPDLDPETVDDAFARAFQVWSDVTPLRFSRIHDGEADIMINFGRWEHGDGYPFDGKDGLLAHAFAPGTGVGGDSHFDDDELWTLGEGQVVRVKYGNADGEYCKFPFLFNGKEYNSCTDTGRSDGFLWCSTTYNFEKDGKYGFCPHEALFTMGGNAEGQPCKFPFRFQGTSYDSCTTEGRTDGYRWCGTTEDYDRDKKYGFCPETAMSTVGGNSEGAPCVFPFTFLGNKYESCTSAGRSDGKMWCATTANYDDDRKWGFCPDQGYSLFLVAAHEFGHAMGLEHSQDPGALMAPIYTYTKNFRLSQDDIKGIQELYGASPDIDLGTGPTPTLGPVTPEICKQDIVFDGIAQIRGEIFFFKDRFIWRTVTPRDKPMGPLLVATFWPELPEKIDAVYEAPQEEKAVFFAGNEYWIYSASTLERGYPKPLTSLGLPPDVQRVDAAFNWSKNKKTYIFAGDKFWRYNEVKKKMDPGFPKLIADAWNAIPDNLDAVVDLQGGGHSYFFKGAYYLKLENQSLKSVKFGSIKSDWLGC

`N#Cc1ccc(-c2ccc(CCC(O)CC(=O)O)cc2)cc1` (stereo unspecified): the IC50 in data set [1] is greater than 98 µM; in data set [2] it was 0.086 µM; in data set [3], 2.45 µM.
In the case of `O=C(O)CC(O)CCc1ccc(-c2ccccc2)cc1` (stereo in doubt), the IC50 in [4] is greater than 98 µM; in data set [5], greater than 98 µM; in [1], greater than 98 µM; in data set [6], 19.1 µM; in [2], 0.79 µM; in data set [7], 4.67 µM. The IC50 was 36.8 µM in data set [3], greater than 9 µM in data set [8], greater than 98 µM in [9] and greater than 250 µM in [10].
As to `CC(=O)c1ccc(-c2ccc(CCC(O)CC(=O)O)cc2)cc1` (stereo unspecified), the figures for the IC50 in data set [1] and in data set [3] were greater than 98 µM and 0.97 µM, respectively.
With `O=C(O)C[S+]([O-])CCc1ccc(-c2ccccc2)cc1` (stereo unspecified), the IC50 was greater than 98 µM in [1], 4.5 µM in data set [2] and 95.9 µM in [3].
`COC(CCc1ccc(-c2ccccc2)cc1)CC(=O)O` (stereo unspecified): the values for the IC50 in data set [1], in data set [2] and in [3] were greater than 98 µM, 3.53 µM and greater than 98 µM, respectively.
As for `O=C(O)CC(O)CCc1ccc(-c2ccccc2)cc1` (racemic), the IC50 in data set [4] was greater than 98 µM; in data set [5], greater than 98 µM; in data set [1], greater than 98 µM; in data set [11] it was 4.52 µM; in data set [6] it was 16.5 µM; in data set [7], 0.91 µM. The IC50 in data set [3] was 12 µM; in [8], 43.5 µM; in data set [9] it was greater than 98 µM; in [10], greater than 250 µM. In addition, the results for the logD in [12] and in data set [13] were 0.55 and 1.43, respectively. Further, the solubility turned out to be 960 µg/mL (≈ 3550 µM) in data set [14] and 450 µg/mL (≈ 1660 µM) in data set [15].
As to `N#Cc1cccc(-c2ccc(CCC(O)CC(=O)O)cc2)c1` (stereo unspecified), the IC50 in data set [1] is greater than 98 µM; in data set [2] it was 3.39 µM; in [3] it was 52 µM.
Consider `O=C(O)CC(=O)CCc1ccc(-c2ccccc2)cc1`, for which the IC50 in [1] was greater than 98 µM; in data set [2] it was 7.84 µM; in data set [3], greater than 98 µM.
On to `CSc1ccc(-c2ccc(CCC(O)CC(=O)O)cc2)cc1` (stereo unspecified), for which the values for the IC50 in data set [1], in [2] and in [3] were greater than 98 µM, 0.058 µM and 1.13 µM, respectively.
Take `O=C(O)CSCCc1ccc(-c2ccccc2)cc1`: the IC50 in [1] is greater than 98 µM; in [2] it was 11.8 µM; in [3], 95.2 µM.
As to `O=C(O)CC(O)CCc1ccc(-c2ccncc2)cc1` (stereo unspecified), the IC50 was 0.055 µM in [2] and 3.76 µM in [3].
`O=C(O)CC(O)CCc1ccc(-c2cc3ccccc3o2)cc1` (stereo unspecified): the IC50 in [2] was 0.181 µM; in data set [3], 50.2 µM.
With `O=C(O)CC(O)CCc1ccc(-c2ccc(OCc3ccccc3)cc2)cc1` (stereo unspecified), the IC50 was greater than 98 µM in [1], 3.75 µM in data set [2] and greater than 98 µM in data set [3].
In the case of `CC(=O)OC(CCc1ccc(-c2ccccc2)cc1)CC(=O)O` (stereo unspecified), the IC50 in [1] was greater than 98 µM; in [2] it was 54.4 µM; in data set [3] it was greater than 98 µM.
Consider `O=C(O)CC(O)CCc1ccc(-c2ccc3c(c2)oc2ccccc23)cc1` (stereo unspecified), for which the IC50 in data set [1] was greater than 98 µM; in data set [2] it was 20.1 µM; in data set [3] it was 33.5 µM.
For `O=C(O)CC(O)CCc1ccc(-c2ccc(Oc3ccccc3)cc2)cc1` (stereo unspecified), the IC50 in data set [1] was greater than 98 µM; in [2], 19.9 µM; in [3], 41.9 µM.
As for `O=C(O)CC(O)CCc1ccc(-c2ccccc2)cc1` (single isomer, unassigned), the IC50 in data set [4] was greater than 98 µM; in data set [5], greater than 98 µM; in data set [1], greater than 98 µM; in data set [6], 10.5 µM; in data set [2], 0.34 µM; in data set [7], 1.14 µM. For the same compound, the IC50 in data set [3] is 9.99 µM; in data set [8], 36.6 µM; in [9] it was greater than 98 µM; in data set [10] it was greater than 250 µM.
On to `O=C(O)CS(=O)(=O)CCc1ccc(-c2ccccc2)cc1`, for which the IC50 in data set [1] is greater than 98 µM; in [2], 2.49 µM; in [3], 11.3 µM.

By IC50 is commonly meant the concentration that inhibits the measured activity by half. The logD is lipophilicity at a set pH, counting ionised and neutral species. A low value points to lower lipophilicity. For orientation: solubility means the concentration that dissolves in the medium under given conditions. A lower solubility goes with a poorly soluble substance.

Values taken from ChEMBL document CHEMBL1155192, “The identification of beta-hydroxy carboxylic acids as selective MMP-12 inhibitors” (Bioorg Med Chem Lett, 2009).
